Experiments:
Squalene synthase = target: T1, Squalene synthase (Homo sapiens, UniProt P37268); experiment: Inhibitory activity against HepG2 Squalene Synthase (SQS)
T1 sequence (P37268 whole entry): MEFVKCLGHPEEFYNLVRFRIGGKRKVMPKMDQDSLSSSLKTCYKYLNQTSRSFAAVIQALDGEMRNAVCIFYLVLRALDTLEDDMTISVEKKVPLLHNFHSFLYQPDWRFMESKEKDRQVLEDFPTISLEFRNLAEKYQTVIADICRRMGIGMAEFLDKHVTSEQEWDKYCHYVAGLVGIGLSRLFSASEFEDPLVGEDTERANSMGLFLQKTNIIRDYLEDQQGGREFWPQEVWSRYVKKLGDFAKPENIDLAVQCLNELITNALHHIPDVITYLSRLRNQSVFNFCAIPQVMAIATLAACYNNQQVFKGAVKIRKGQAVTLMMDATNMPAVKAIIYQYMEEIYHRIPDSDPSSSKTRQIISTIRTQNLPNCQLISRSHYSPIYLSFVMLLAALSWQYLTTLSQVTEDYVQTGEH

Mus musculus [1] = experiment: Inhibition of cholesterol synthesis from [14C]acetate expressed as percent reduction in radioactivity in mice after oral administration of 3 mg/kg; format: functional
Mus musculus [2] = experiment: Tested for inhibition of cholesterol synthesis by compound after oral administration at 10 mg/kg in mice; format: functional
[3] = Inhibition of cholesterol synthesis by compound after oral administration at of 10-100 mg/kg/day in marmoset; format: functional

With `C[C@@H](NC(=O)C[C@H](CC(=O)O)C(=O)O)[C@H](Cc1ccc(Cl)c(Cl)c1)c1ccc(-c2ccccc2)c(F)c1` the IC50 (Squalene synthase) was 16 nM.
Work on `C[C@H](NC(=O)CC(CC(=O)O)C(=O)O)[C@@H](Cc1ccc(Cl)c(Cl)c1)c1ccc(-c2ccccc2)c(F)c1` (some centres not stated) yielded an IC50 (Squalene synthase) of over 300 nM.
Compound `C[C@@H](NC(=O)C[C@H](CC(=O)O)C(=O)O)[C@@H](Cc1ccc(Cl)c(Cl)c1)c1ccc(-c2ccccc2)c(F)c1` has an IC50 (Squalene synthase) of 19 nM.
Compound `C[C@H](NC(=O)C[C@@H](CC(=O)O)C(=O)O)[C@@H](Cc1ccc(Cl)cc1)c1ccc(-c2ccccc2)cc1` has an IC50 (Squalene synthase) of 3.2 nM.
`CC(NC(=O)CC(CC(=O)O)C(=O)O)C(Cc1ccc(Cl)cc1)c1ccc(Cl)cc1` (configuration not stated) showed an IC50 (Squalene synthase) of 660 nM.
For `C[C@@H](NC(=O)CC(CC(=O)O)C(=O)O)[C@H](Cc1ccc(Cl)c(Cl)c1)c1ccc(-c2ccccc2)c(F)c1` (some centres not stated), the IC50 (Squalene synthase) was over 300 nM.
Compound `C[C@H](NC(=O)C[C@@H](CC(=O)O)C(=O)O)[C@@H](Cc1ccc(Cl)c(Cl)c1)c1ccc(-c2ccccc2)cc1` has an IC50 (Squalene synthase) of 1.2 nM.
`C[C@H](NC(=O)C[C@@H](CC(=O)O)C(=O)O)[C@@H](Cc1ccc(Cl)c(Cl)c1)c1ccc(-c2ccccc2)c(F)c1` gave an IC50 (Squalene synthase) of 0.52 nM and a Reduction (Mus musculus [1]) of 84%.
`C[C@H](NC(=O)CC(CC(=O)O)C(=O)O)[C@@H](Cc1ccc(Cl)c(Cl)c1)c1ccc(-c2ccccc2)c(F)c1` (single isomer, unassigned) gave an IC50 (Squalene synthase) of 0.73 nM.
For `C=C(CCC12OC(C(=O)O)C(O)(C(=O)O)C(C(=O)O)(O1)[C@H](OC(=O)/C=C/[C@@H](C)C[C@@H](C)CC)[C@H]2O)[C@@H](OC(C)=O)[C@H](C)Cc1ccccc1` (some centres not stated) [ZARAGOZIC ACID A], the inhibition in vivo at 10 mg/kg (Mus musculus [2]) was 38% and the Reduction [3] was 75%.

Reference: ChEMBL document CHEMBL1151488, “Synthesis and biological activity of J-104,118, a novel, potent inhibitor of squalene synthase” (Bioorg Med Chem Lett, 1995)
